Broadly, the LOAEL is the lowest dose or exposure tested at which an adverse effect was seen. A word on the NOAEL: it is the highest tested level that showed no adverse finding.

9 molecules from EPA's ToxValDB 9.5 can be followed below.

One series relates to Canidae. Particulars: chronic, oral, diet, M/F, Dog Other.
Another series relates to Mus musculus. The following applies: chronic, M/F; for LEL / NOEL: diet.
For series [1], the system named is Rattus norvegicus. Particulars: repeat dose other; oral.
For series [2], the system named is Rattus norvegicus. The following applies: subchronic; oral; M/F; mortality and body weight loss.
Series [3] has as its system Rattus norvegicus. The following applies: oral, gavage.
Setting [4] is: duration: 1 years, increased serum cholesterol, alkaline phosphatase, and relative liver and kidney weight, and decreased alanine transaminase and adrenal ….
The mark [5] stands for this setting: duration: 2 years, oral, centrilobular hepatocytomegaly (males).
The mark [6] stands for this setting: duration: 20 months, oral, increased absolute liver weight and nonneoplastic lesions.
[7] abbreviates: duration: 2 years, Increased mean blood sugar concentration + slight hypothermia.
[8] abbreviates: duration: 2 years, reduced body weight gain.
Where [9] appears, read: short-term, duration: 28 days, M, Sprague-Dawley, Clinical Observation: Respiratory rate decrease, Incomplete eyelid opening SalivationSpontaneous locomotion decrease + Body Weight Changes: ….
[10] abbreviates: short-term, duration: 28 days, M, Sprague-Dawley, Clinical Observation: Spontaneous locomotion decrease, Respiratory rate decrease, Salivation + Body Weight Changes: decrease + Food ….

Bounds are passed on as bounds.

As to `CCCN(CCC)c1c([N+](=O)[O-])cc(S(N)(=O)=O)cc1[N+](=O)[O-]` [Oryzalin], in the series with Canidae (setting [4]), the LEL is 50 mg/kg-day and the NOEL was 5 mg/kg-day.
In the series with Mus musculus (setting [5]), `COc1nc(C)nc(NC(=O)NS(=O)(=O)c2ccccc2OCCCl)n1` [Triasulfuron] registered an LEL of 129 mg/kg-day and an NOEL of 1.2 mg/kg-day.
Turning to `CCOc1cc(Oc2ccc(C(F)(F)F)cc2Cl)ccc1[N+](=O)[O-]` [Oxyfluorfen], in the series on Mus musculus (setting [6]), the LEL is 3 mg/kg-day and the NOEL worked out at 0.3 mg/kg-day.
`Cc1ccc(N=CN(C)C=Nc2ccc(C)cc2C)c(C)c1` [Amitraz]: in the series on Canidae (setting [7]), the LEL is 1 mg/kg-day and the NOEL worked out at 0.25 mg/kg-day.
In turn, `CCC1CO1` (configuration not stated) [1,2-Epoxybutane] displayed an LOAEL in the series on Mus musculus (duration: 2 years, inhalation, degenerative lesions of the nasal cavity) of 147 mg/m3.
As for `C=CCOC(Cn1ccnc1)c1ccc(Cl)cc1Cl` (configuration not stated) [Imazalil], in the series on Canidae (setting [8]), the LEL is 5 mg/kg-day and the NOEL came out at 1.25 mg/kg-day.
Turning to `Clc1ccc2oc3c(Cl)c(Cl)c(Cl)c(Cl)c3c2c1` [Dibenzofuran, 1,2,3,4,8-pentachloro-], the NOAEL with Rattus norvegicus [1] turned out to be 0.048 mg/kg-day.
`CCOC(C)=O` [Ethyl acetate]: in the series with Rattus norvegicus [2], the LOAEL was found to be 3600 mg/kg-day and the NOEL turned out to be 900 mg/kg-day. In the series with Rattus norvegicus [1], this molecule returned an LOAEL of 360 mg/kg-day and a no-observed-adverse-effect level (NOAEL) of 90 mg/kg-day.
Consider `ClC(Cl)Br` [Bromodichloromethane], for which the LOAEL in the series with Mus musculus (oral, gavage, renal cytomegaly) came to 25 mg/kg-day. The no observed adverse effect level (NOAEL) in the series with Rattus norvegicus [3] (setting [9]) and with Rattus norvegicus [3] (setting [10]) was 40 mg/kg-day in each case. In addition, the NOEL with Rattus norvegicus [3] (setting [9]) is < 40 mg/kg-day; in the series on Rattus norvegicus [3] (setting [10]), < 40 mg/kg-day; in the series with Rattus norvegicus [3] (subchronic, duration: 13 weeks, M/F, Fischer 344, Deaths + Body Weight Changes: decrease + Histopathology: Liver/centrilobular-Degeneration Liver/bile duct -Hyperplasia Liver-Enlargement, …), 38 mg/kg-day.
